Test results taken from patent US20060004088A1, “Furan derivatives for preventing and curing osteoporosis and pharmaceutical compositions containing the same” (OCT INC., priority 2002, published 2006).

Tested on: osteoclast pregenitor cells
Experiment: Inhibition rates of furan derivatives versus osteoclast formation (TRAP staining)
Assay type: cell-based, mice
Conditions: TRAP-positive multinucleated cells, untreated control set as 100%
Description: First, bone marrow cells were isolated, as follow. After sacrificing 7-9 week female mice by cervical dislocation, femur and tibia were excised aseptically while removing attached soft tissues. After cutting both ends of long bones, 1 ml of an enzyme solution, containing 0.1% collagenase (Gibco), 0.05% trypsin and 0.5 mM EDTA (Gibco), was injected to the bone marrow cavity at one end using a syringe with a 26-guage needle, and bone marrow was then collected. After shaking the recovered bone marrow for 30 min, bone marrow cells were collected, and cultured in α-minimum essential medium (α-MEM) supplemented with 10% FBS for 24 hrs. Then, non-adherent cells were collected, which are osteoclast pregenitors, aliquotted onto culture plates at a density of 2×10^5 cells per well, and cultured for 8 days in α-MEM supplemented with 20 ng/ml of macrophage-colony stimulating factor (M-CSF, Peprotech, USA) and 30 ng/ml RANKL (Peprotech, USA). During the 8 days of culturing, the cells were treated with the Compound 1. Thereafter, osteoclast formation was investigated by fixing the cultured cells and then carrying out TRAP staining, as described in the following Experimental Example 2.2. In addition, resorption activity of osteoclasts was investigated by measuring the absorption area after removing osteoclasts in cultures in calcium phosphate-coated plates, as described in Experimental Example 2.3, below.
After cell culture, the adherent cells were washed with PBS, and TRAP staining was performed, as follows. After being fixed with citrate-acetate-formaldehyde for 5 min, the cells were incubated for 1 hr in acetate buffer (prewarmed at 37° C., pH 5.0) containing naphthol AS-BI phosphate, fast Garnet GBC and 7 mM tartrate buffer (pH 5.0). TRAP-positive multinucleated cells having 3 or more nuclei were considered as osteoclasts.
Osteoclast pregenitor cells were isolated, and their differentiation to mature osteoclasts was induced, according to the same method as in the Experimental Example 2-1, while treated with each of the furan derivatives of the present invention. According to the same method as in the Experimental Example 2-2, TRAP staining performed, and TRAP-positive multinucleated cells were counted. An inhibition rate of each furan derivative against osteoclast formation was expressed as percentage, wherein the number of stained cells in a control not treated the furan derivative was arbitrarily set as 100% (Tables 14 to 16).

SMILES	Inhibition rate against osteoclast formation, % (0.1 μM) [%]	Inhibition rate against osteoclast formation, % (1 μM) [%]	Inhibition rate against osteoclast formation, % (10 μM) [%]
O=C(Nc1ccc(F)cc1)c1ccc(COc2cccc(Cl)c2)o1 [Compound 141]	0	0	13.01
Cc1cc(OCc2ccc(C(=O)Nc3ccc(Cl)cc3)o2)ccc1Cl [Compound 173]	0	0	8.03
Cc1cc(OCc2ccc(C(=O)N3CCOCC3)o2)ccc1Cl [Compound 132]	0	0	62.30
O=Cc1ccc(COC(=O)Cc2ccc3ccccc3c2)o1 [Compound 38]	0	23.33	20
O=C(Nc1cc(C(F)(F)F)ccc1Cl)c1ccc(COc2ccc(Cl)cc2)o1 [Compound 181]	0	0	56.96
COc1cccc(F)c1CC(=O)OCc1ccc(C=O)o1 [Compound 41]	0	6.67	56.67
O=Cc1ccc(COC(=O)Nc2ccc(Br)cc2)o1 [Compound 50]	0	10	0
COC(=O)c1ccc(COc2ccc(Cl)cc2)o1 [Compound 80]	0	0	15.19
COC(=O)c1ccc(COc2ccccc2[N+](=O)[O-])o1 [Compound 67]	0	0	15.92
O=C(Nc1ccc(F)cc1F)c1ccc(COc2c(F)c(F)cc(F)c2F)o1 [Compound 185]	0	0	13.64
COc1ccc(NC(=O)c2ccc(COc3ccc(Cl)c(C)c3)o2)cc1 [Compound 150]	0	0	19.12
CC(=O)Nc1cccc(NC(=O)c2ccc(COc3c(F)c(F)c(F)c(F)c3F)o2)c1 [Compound 187]	–	37.05	36.74
CCc1cccc(NC(=O)c2ccc(COc3ccc(F)cc3)o2)c1 [Compound 163]	0	0	51.2
O=C(Nc1ccccc1F)c1ccc(COc2ccc(Cl)cc2)o1 [Compound 178]	0	0	14.09
O=Cc1ccc(COC(=O)Nc2ccccc2Cl)o1 [Compound 55]	0	20	20
O=C(O)c1ccc(COc2ccccc2Cl)o1 [Compound 107]	0	0	32
CCOc1ccccc1NC(=O)c1ccc(COc2ccc(Cl)cc2[N+](=O)[O-])o1 [Compound 144]	0	21.95	85.25
O=Cc1ccc(COC(=O)C(c2ccccc2)(c2ccccc2)c2ccccc2)o1 [Compound 40]	0	16.67	43.33
O=C(c1ccc(COc2ccccc2Br)o1)N1CCCCCC1 [Compound 128]	6.54	0	97.65
O=Cc1ccc(COC(=O)Cc2cccc(Cl)c2)o1 [Compound 35]	0	23.33	43.33
CC(C)(C)c1ccc(OCc2ccc(C(=O)NC3CCCCC3)o2)cc1 [Compound 134]	0	0	21.42
O=C(Nc1ccc(F)c(F)c1)c1ccc(COc2ccc(I)cc2)o1 [Compound 143]	0	0	10.63
COc1ccccc1OCc1ccc(C(=O)Nc2ccccc2Cl)o1 [Compound 174]	0	0	14.11
O=C(c1ccc(COc2cc(Cl)ccc2Cl)o1)N1CCCCCC1 [Compound 133]	0	0	0.5
CC(C)(C)NC(=O)c1ccc(COc2ccccc2Br)o1 [Compound 129]	0	0	2.2
CCCc1ccc(OCc2ccc(C(=O)Nc3ccc(F)cc3F)o2)c(OC)c1 [Compound 176]	0	0	15.56
COc1ccccc1OCc1ccc(C(=O)Nc2ccc(C)c(C)c2)o1 [Compound 175]	0	0	33.33
COC(=O)c1ccc(COc2ccc(Cl)cc2[N+](=O)[O-])o1 [Compound 66]	0	0	13.58
